Data taken from ChEMBL document CHEMBL1201862, “PubChem BioAssay data set” (2004).
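Interpolation was linear, between the two tested concentrations surrounding the appropriate level; five concentrations were tested over 48 hours in 96-well plates. Abbreviation: GI50, concentration required for 50% inhibition of growth.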 Activity calls are given as the source filed them. No stated cut-off is given here; in the data, active = GI50 up to about 1.1 µM and inactive = higher.

Legend:
Assay in all cases: NCI anticancer screen, dose series, 48 h
EKVX = tested on: EKVX
Malme-3M = tested on: Malme-3M
UACC-257 = tested on: UACC-257
T47D = tested on: T47D
SK-MEL-2 = tested on: SK-MEL-2
A549 = tested on: A549
MOLT-4 = tested on: MOLT-4
SN12C = tested on: SN12C
HT-29 = tested on: HT-29
TK-10 = tested on: TK-10
OVCAR-3 = tested on: OVCAR-3
MDA-MB-435 = tested on: MDA-MB-435
CCRF-CEM = tested on: CCRF-CEM
RXF 393 = tested on: RXF 393
HOP-92 = tested on: HOP-92
NCI-H23 = tested on: NCI-H23
CAKI-1 = tested on: CAKI-1
IGROV-1 = tested on: IGROV-1
SF-268 = tested on: SF-268
SNB-19 = tested on: SNB-19
K562 = tested on: K562
UACC-62 = tested on: UACC-62
BT-549 = tested on: BT-549
SR = tested on: SR
COLO 205 = tested on: COLO 205
SK-MEL-5 = tested on: SK-MEL-5
HOP-62 = tested on: HOP-62
SF-539 = tested on: SF-539
PC-3 = tested on: PC-3
OVCAR-8 = tested on: OVCAR-8
NCI-H460 = tested on: NCI-H460
MDA-MB-231 = tested on: MDA-MB-231
NCI-H522 = tested on: NCI-H522
OVCAR-5 = tested on: OVCAR-5
SK-MEL-28 = tested on: SK-MEL-28
SK-OV-3 = tested on: SK-OV-3
DU-145 = tested on: DU-145
M14 = tested on: M14
HCT-116 = tested on: HCT-116
Hs-578T = tested on: Hs-578T
HCC 2998 = tested on: HCC 2998
OVCAR-4 = tested on: OVCAR-4
HL-60 = tested on: HL-60
ACHN = tested on: ACHN
MCF7 = tested on: MCF7
RPMI-8226 = tested on: RPMI-8226
SF-295 = tested on: SF-295
U-251 = tested on: U-251
KM12 = tested on: KM12
NCI/ADR-RES = tested on: NCI/ADR-RES
NCI-H226 = tested on: NCI-H226
786-0 = tested on: 786-0
UO-31 = tested on: UO-31
A498 = tested on: A498
MDA-N = tested on: MDA-N
HCT-15 = tested on: HCT-15
SW-620 = tested on: SW-620
LOX IMVI = tested on: LOX IMVI

COC(=O)c1c(O)ccc2c1c1c(n2Cc2ccccc2Cl)C(=O)c2ccccc2C1=O
GI50 (EKVX): 16.9 µM (inactive) | GI50 (Malme-3M): 17 µM (inactive) | GI50 (UACC-257): 17.9 µM (inactive) | GI50 (T47D): 7.01 µM (inactive) | GI50 (SK-MEL-2): 17.4 µM (inactive) | GI50 (A549): 8.69 µM (inactive) | GI50 (MOLT-4): 7.03 µM (inactive) | GI50 (SN12C): 10.2 µM (inactive) | GI50 (HT-29): 1.17 µM (inactive) | GI50 (TK-10): 16.1 µM (inactive) | GI50 (OVCAR-3): 10 µM (inactive) | GI50 (MDA-MB-435): 10.7 µM (inactive) | GI50 (CCRF-CEM): 8.38 µM (inactive) | GI50 (RXF 393): 16.3 µM (inactive) | GI50 (HOP-92): 14.8 µM (inactive) | GI50 (NCI-H23): 13.2 µM (inactive) | GI50 (CAKI-1): 13.7 µM (inactive) | GI50 (IGROV-1): 13.6 µM (inactive) | GI50 (SF-268): 12.4 µM (inactive) | GI50 (SNB-19): 16 µM (inactive) | GI50 (K562): 14.3 µM (inactive) | GI50 (UACC-62): 14.8 µM (inactive) | GI50 (BT-549): 12.6 µM (inactive) | GI50 (SR): 14.6 µM (inactive) | GI50 (COLO 205): 4.13 µM (inactive) | GI50 (SK-MEL-5): 12.5 µM (inactive) | GI50 (HOP-62): 26 µM (inactive) | GI50 (SF-539): 15.4 µM (inactive) | GI50 (PC-3): 11.5 µM (inactive) | GI50 (OVCAR-8): 16 µM (inactive) | GI50 (NCI-H460): 6.78 µM (inactive) | GI50 (MDA-MB-231): 15.3 µM (inactive) | GI50 (NCI-H522): 10.9 µM (inactive) | GI50 (OVCAR-5): 19.5 µM (inactive) | GI50 (SK-MEL-28): 15.6 µM (inactive) | GI50 (SK-OV-3): 12.9 µM (inactive) | GI50 (DU-145): 15.5 µM (inactive) | GI50 (M14): 15.5 µM (inactive) | GI50 (HCT-116): 10.5 µM (inactive) | GI50 (Hs-578T): 21.6 µM (inactive) | GI50 (HCC 2998): 14.6 µM (inactive) | GI50 (OVCAR-4): 2.93 µM (inactive) | GI50 (HL-60): 16.9 µM (inactive) | GI50 (ACHN): 16.5 µM (inactive) | GI50 (MCF7): 6.73 µM (inactive) | GI50 (RPMI-8226): 5.98 µM (inactive) | GI50 (SF-295): 14.6 µM (inactive) | GI50 (U-251): 12.6 µM (inactive) | GI50 (KM12): 10.1 µM (inactive) | GI50 (NCI/ADR-RES): 12.1 µM (inactive) | GI50 (NCI-H226): 17.7 µM (inactive) | GI50 (786-0): 16.6 µM (inactive) | GI50 (UO-31): 10.9 µM (inactive) | GI50 (A498): 16.5 µM (inactive) | GI50 (MDA-N): 12.8 µM (inactive) | GI50 (HCT-15): 12.7 µM

CC(=O)Oc1ccccc1/C=C/C(=O)/C=C/c1ccccc1OC(C)=O
GI50 (EKVX): 1.79 µM (inactive) | GI50 (Malme-3M): 2.81 µM (inactive) | GI50 (UACC-257): 1.36 µM (inactive) | GI50 (T47D): 3.49 µM (inactive) | GI50 (SK-MEL-2): 3.79 µM (inactive) | GI50 (A549): 2.26 µM (inactive) | GI50 (MOLT-4): 1.36 µM (inactive) | GI50 (SN12C): 1.9 µM (inactive) | GI50 (HT-29): 1.94 µM (inactive) | GI50 (TK-10): 3.39 µM (inactive) | GI50 (OVCAR-3): 1.66 µM (inactive) | GI50 (MDA-MB-435): 2.15 µM (inactive) | GI50 (CCRF-CEM): 0.501 µM (active) | GI50 (RXF 393): 0.126 µM (active) | GI50 (HOP-92): 4.11 µM (inactive) | GI50 (NCI-H23): 1.73 µM (inactive) | GI50 (CAKI-1): 3.75 µM (inactive) | GI50 (IGROV-1): 2 µM (inactive) | GI50 (SF-268): 1.71 µM (inactive) | GI50 (SNB-19): 2.39 µM (inactive) | GI50 (K562): 0.429 µM (active) | GI50 (UACC-62): 1.64 µM (inactive) | GI50 (BT-549): 1.73 µM (inactive) | GI50 (SW-620): 0.447 µM (active) | GI50 (SR): 0.867 µM (active) | GI50 (COLO 205): 1.89 µM (inactive) | GI50 (SK-MEL-5): 1.84 µM (inactive) | GI50 (HOP-62): 2.44 µM (inactive) | GI50 (SF-539): 1.74 µM (inactive) | GI50 (PC-3): 1.65 µM (inactive) | GI50 (OVCAR-8): 1.94 µM (inactive) | GI50 (NCI-H460): 2.05 µM (inactive) | GI50 (MDA-MB-231): 2.66 µM (inactive) | GI50 (NCI-H522): 1.96 µM (inactive) | GI50 (OVCAR-5): 2.21 µM (inactive) | GI50 (SK-MEL-28): 1.97 µM (inactive) | GI50 (SK-OV-3): 4.15 µM (inactive) | GI50 (DU-145): 3.08 µM (inactive) | GI50 (M14): 1.95 µM (inactive) | GI50 (HCT-116): 0.239 µM (active) | GI50 (Hs-578T): 3.69 µM (inactive) | GI50 (HCC 2998): 1.88 µM (inactive) | GI50 (OVCAR-4): 2.38 µM (inactive) | GI50 (HL-60): 0.748 µM (active) | GI50 (ACHN): 1.8 µM (inactive) | GI50 (MCF7): 0.959 µM (active) | GI50 (RPMI-8226): 0.308 µM (active) | GI50 (LOX IMVI): 0.64 µM (active) | GI50 (SF-295): 2.26 µM (inactive) | GI50 (U-251): 1.51 µM (inactive) | GI50 (KM12): 1.09 µM (active) | GI50 (NCI/ADR-RES): 3.33 µM (inactive) | GI50 (NCI-H226): 1.81 µM (inactive) | GI50 (786-0): 1.79 µM (inactive) | GI50 (UO-31): 1.68 µM (inactive) | GI50 (A498): 2.08 µM (inactive) | GI50 (MDA-N): 1.91 µM (inactive) | GI50 (HCT-15): 2.09 µM
